Test results taken from patent publication US20030072781A1, “Calcified tissue facing preparation containing antimicrobial agent” (Advantage Dental Products, Inc., priority 1998, published 2003).

Tested on: Strept. mutans
Experiment: Strept. mutans culture rinse, colony count
Format: cell-based
Settings: 30 second submersion, counted after 48 hours
Procedure: Standardized cultures of Strept. mutans are grown in petri dishes and subjected to 30 second submersion in 20 milliliters of various concentration rinses of aqueous chlorohexidine. A 0.04% chlorohexidine solution and water serve as controls. Thereafter, the petri dishes are incubated and colony members counted after 48 hours.

SMILES: [H]/N=C(\N/C(=N/[H])NCCCCCCNC(=N)NC(=N)Nc1ccc(Cl)cc1)Nc1ccc(Cl)cc1 [Chlorohexidine, chlorohexidine]
- Colony Member After Rinse (0.04 wt. % aqueous rinse (control)): 26
- Colony Member After Rinse (0.2 wt. % aqueous rinse): 0
- Colony Member After Rinse (0.5 wt. % aqueous rinse): 1
- Colony Member After Rinse (1.0 wt. % aqueous rinse): 1
- Colony Member After Rinse (2.0 wt. % aqueous rinse): 0
- Colony Member After Rinse (5.0 wt. % aqueous rinse): 2
- Colony Member After Rinse (10.0 wt. % aqueous rinse): 0
